Measurements reported in publication PMC11323271 (Journal of Chemical Information and Modeling, 2024).
Values after ≈ are worked out from the molar mass of the structure shown. “Also recorded” adds a separate entry of the source.

What was measured:
[1] = system: M. tuberculosis H37Rv; details: cited from earlier work
[2] = system: M. tuberculosis; details: cited from earlier work
[3] = system: M. tuberculosis H37Ra; assay: microbe, parasite or virus in culture; format: cell-based, Mycobacterium tuberculosis; details: for MIC: Mycobacterium tuberculosis, H37RA, 168 h, read-out: MIC against M. tuberculosis H37Ra
[4] = system: Caco-2 cells; assay: In vitro cytotoxicity, MTT assay; format: cell-based
Protocol: Caco-2 cells (ATCC no. HTB-37) were used for cytotoxicity testing of selected compounds as described in our previous work.[32] Cell viability of tested compounds on Caco-2 cells was determined using 3-(4,5-dimethylthiazol-2-yl)-2,5-diphenyltetrazolium bromide (MTT) following a modified assay procedure.[52] Absorbance was measured at 590 nm using a microplate reader (Infinite M200 PRO, Tecan Group Ltd., Switzerland). The experiment was performed in triplicate and compound concentrations at which cells retained a viability of more than 80% were considered as nontoxic to cells.[53]
Figure S1. Hit compound cytotoxicity against Caco-2 cells. Cells were incubated with different concentrations of compounds (1 (A), 2 (B), 3 (C), 8 (D), 11 (E), 14 (F), G24 (G), and G26 (H)) for 24 h and viability measured by MTT assay. Data are presented as the mean ± SD (n = 6). The yellow bars represent the maximum concentrations at which compounds are non-cytotoxic towards Caco-2 cells.
(1 picture or pasted object on this page, not shown here)

[5] = molecular target: M. tuberculosis DNA gyrase holoenzyme (GyrB ATPase activity) (Mycobacterium tuberculosis, UniProt P9WG45); assay: biochemical; details: for IC50 / IC50 for inhibition of M. tuberculosis DNA gyrase ATPase activity: triplicate, at least 11 inhibitor concentrations; for IC50: read-out: IC50 for inhibition of M. tuberculosis DNA gyrase ATPase activity
M. tuberculosis DNA gyrase holoenzyme (GyrB ATPase activity), sequence (P9WG45 whole entry, looked up): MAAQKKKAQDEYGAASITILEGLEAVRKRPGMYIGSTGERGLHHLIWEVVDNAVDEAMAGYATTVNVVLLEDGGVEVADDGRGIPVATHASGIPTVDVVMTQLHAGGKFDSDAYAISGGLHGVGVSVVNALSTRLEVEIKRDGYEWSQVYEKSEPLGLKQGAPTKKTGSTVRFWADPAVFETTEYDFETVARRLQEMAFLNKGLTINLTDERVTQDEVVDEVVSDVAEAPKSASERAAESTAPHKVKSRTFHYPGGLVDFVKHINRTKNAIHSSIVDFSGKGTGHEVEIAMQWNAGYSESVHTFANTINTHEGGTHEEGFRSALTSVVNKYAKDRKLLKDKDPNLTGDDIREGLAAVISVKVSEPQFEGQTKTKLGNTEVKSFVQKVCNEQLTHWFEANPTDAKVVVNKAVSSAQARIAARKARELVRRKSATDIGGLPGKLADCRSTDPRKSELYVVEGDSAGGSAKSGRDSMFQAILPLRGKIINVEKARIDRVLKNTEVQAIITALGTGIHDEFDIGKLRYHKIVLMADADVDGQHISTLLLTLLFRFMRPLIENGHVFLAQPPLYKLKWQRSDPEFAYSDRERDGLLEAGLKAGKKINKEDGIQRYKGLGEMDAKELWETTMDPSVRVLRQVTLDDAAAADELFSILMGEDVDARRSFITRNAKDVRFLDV

[6] = system: M. tuberculosis H37Ra; details: previous virtual screening work; cited from earlier work

COc1ccc(CCNCC(O)Cn2c3ccccc3c3ccccc32)cc1OC (stereo not shown) [AF-399/41048884]
IC50 [1]: 10.6 µM

OC(CN1CCN(c2ccccn2)CC1)Cn1c2ccccc2c2ccccc21 (stereo not shown) [AG-690/11353646]
IC50 [2]: 36.1 µM

OC(CNCCC1C=Nc2ccccc21)Cn1c2ccccc2c2ccccc21 (stereo not shown) [Compound 1]
MIC [3]: 6.2 µg/mL (≈ 16.2 µM) | maximum non-cytotoxic concentration toward Caco-2 cells ([4]; human, Caco-2, 24 h): 25.0 µg/mL | IC50 [5]: 0.73 µM

OC(CNCCOc1ccccc1)Cn1c2ccccc2c2ccccc21 (stereo not shown) [Compound 2]
MIC [3]: 6.2 µg/mL (≈ 17.2 µM) | maximum non-cytotoxic concentration toward Caco-2 cells ([4]; human, Caco-2, 24 h): 12.5 µg/mL | IC50 [5]: 1.34 µM

OC(CNCc1ccccc1)Cn1c2ccccc2c2ccccc21 (stereo not shown) [Compound 3]
MIC [3]: 12.5 µg/mL (≈ 37.8 µM) | maximum non-cytotoxic concentration toward Caco-2 cells ([4]; 24 h, MTT, viability of more than 80% considered nontoxic): 12.5 µg/mL | IC50 [5]: 3.82 µM

Cc1ccc(NCC(O)Cn2c3ccccc3c3ccccc32)cc1Cl (stereo not shown) [Compound 4]
MIC [3]: > 100 µg/mL

O=C(NNCC(O)Cn1c2ccccc2c2ccccc21)c1ccccc1 (stereo not shown) [Compound 5]
MIC [3]: > 100 µg/mL

CCc1ccc(NCC(O)Cn2c3ccccc3c3ccccc32)cc1 (stereo not shown) [Compound 6]
MIC [3]: > 100 µg/mL

Cc1ccc(NCC(O)Cn2c3ccccc3c3ccccc32)cc1 (stereo not shown) [Compound 7]
MIC [3]: > 100 µg/mL

CCn1c2ccccc2c2cc(CNCCNCC(C)O)ccc21 (stereo not shown) [Compound 8]
MIC [3]: 25 µg/mL (≈ 76.8 µM) | maximum non-cytotoxic concentration toward Caco-2 cells ([4]; human, Caco-2, 24 h): 12.5 µg/mL | ATPase inhibition, fold more effective than carbazole derivative 1 [5]: approximately 3 fold | ATPase inhibition, fold more effective than carbazole derivative 2 [5]: ~5 fold | ATPase inhibition, fold more effective than carbazole derivative 3 [5]: ~15 fold | IC50 fold better than novobiocin [5]: 5 fold | IC50 [5]: 0.26 µM

OC(CN1CCOCC1)Cn1c(-c2ccccc2)c(-c2ccccc2)c2ccc3ccccc3c21 (stereo not shown) [Compound 9]
MIC [3]: 12.5 µg/mL (≈ 27 µM) | IC50 for inhibition of M. tuberculosis DNA gyrase ATPase activity [5]: inactive; also recorded: absence of observable ATPase inhibition

OC(CNCc1ccco1)Cn1c(-c2ccccc2)c(-c2ccccc2)c2ccc3ccccc3c21 (stereo not shown) [Compound 10]
MIC [3]: 3.1 µg/mL (≈ 6.56 µM) | IC50 for inhibition of M. tuberculosis DNA gyrase ATPase activity [5]: inactive; also recorded: absence of observable ATPase inhibition

OCCNCC(O)Cn1c(-c2ccccc2)c(-c2ccccc2)c2ccc3ccccc3c21 (stereo not shown) [Compound 11]
MIC [3]: 3.1 µg/mL (≈ 7.1 µM) | maximum non-cytotoxic concentration toward Caco-2 cells ([4]; human, Caco-2, 24 h): 0.87 µg/mL | IC50 fold better than novobiocin [5]: 2 fold | IC50 [5]: 0.56 µM

Cc1cc(C)c2c(c1)c(-c1ccccc1)c(-c1ccccc1)n2CC(O)CN1CCOCC1 (stereo not shown) [Compound 12]
MIC [3]: 12.5 µg/mL (≈ 28.4 µM) | IC50 for inhibition of M. tuberculosis DNA gyrase ATPase activity [5]: inactive; also recorded: absence of observable ATPase inhibition

Cc1ccc2c(c1)c(-c1ccccc1)c(-c1ccccc1)n2CC(O)CN1CCOCC1 (stereo not shown) [Compound 13]
MIC [3]: 12.5 µg/mL (≈ 29.3 µM) | IC50 for inhibition of M. tuberculosis DNA gyrase ATPase activity [5]: inactive; also recorded: absence of observable ATPase inhibition

Cc1ccc2c(c1)c(-c1ccccc1)c(-c1ccccc1)n2CC(O)CNC(CO)(CO)CO (stereo not shown) [Compound 14]
MIC [3]: 6.2 µg/mL (≈ 13.5 µM) | maximum non-cytotoxic concentration toward Caco-2 cells ([4]; human, Caco-2, 24 h): 12.5 µg/mL | IC50 fold better than novobiocin [5]: 16 fold | IC50 [5]: 0.08 µM

Cc1ccc2c(c1)c(-c1ccccc1)c(-c1ccccc1)n2CC(O)CN(CCO)CCO (stereo not shown) [G24, reference compound]
MIC [3]: 12.5 µg/mL (≈ 28.1 µM) | maximum non-cytotoxic concentration, fold higher than for G26 ([4]; human, 24 h): 15 fold | maximum non-cytotoxic concentration toward Caco-2 cells ([4]; human, Caco-2, 24 h): 25 µg/mL | MIC against M. tuberculosis (previous work) [6]: 12.5 µg/mL (≈ 28.1 µM) | IC50 [5]: 2.69 µM

CO[C@@H]1[C@@H](OC(N)=O)[C@@H](O)[C@H](Oc2ccc3c(O)c(NC(=O)c4ccc(O)c(CC=C(C)C)c4)c(=O)oc3c2C)OC1(C)C [Novobiocin, reference compound]
MIC against M. tuberculosis H37Ra [3]: > 100 µg/mL | MIC [3]: > 100 µg/mL | MIC against M. tuberculosis (previous work) [6]: exceeding 100 μg/mL
